Experimental data: PubChem BioAssay AID192 (DTP/NCI, 2004)
“And” between values parts separate entries of the source, which are not always exact repeats. Identical values can stand only once. Inconclusive results and toxic doses are left out.

System: BDF1 mice, B16 melanoma ip, median survival T/C
Assay: NCI In Vivo Anticancer Drug Screen. Data for tumor model B16 Melanoma (intraperitoneal) in B6D2F1 (BDF1) mice
Conditions: endpoint: median survival time, higher = longer survival
Method: The antitumor activity of compounds was measured in mice bearing transplantable tumors. Survival or tumor size were measured and the results are expressed as the measurement made in the treated group (T) divided by the measurement made in the vehicle treated control group (C). The tumor model used in this assay is B16 Melanoma (intraperitoneal) in B6D2F1 (BDF1) mice

[1] = dose: 6.25 mg/kg/injection, schedule: Q01DX009 (ip), vehicle: saline with Tween-80
[2] = dose: 12.5 mg/kg/injection, schedule: Q04DX003 (ip), vehicle: saline
[3] = dose: 25.0 mg/kg/injection, schedule: Q04DX003 (ip), vehicle: saline
[4] = dose: 50.0 mg/kg/injection, schedule: Q04DX003 (ip), vehicle: saline
[5] = dose: 100.0 mg/kg/injection, schedule: Q04DX003 (ip), vehicle: saline
[6] = dose: 12.5 mg/kg/injection, schedule: Q01DX009 (ip), vehicle: saline with Tween-80
[7] = dose: 25.0 mg/kg/injection, schedule: Q01DX009 (ip), vehicle: saline with Tween-80
[8] = dose: 50.0 mg/kg/injection, schedule: Q01DX009 (ip), vehicle: saline with Tween-80
[9] = dose: 100.0 mg/kg/injection, schedule: Q01DX009 (ip), vehicle: Klucel (hydroxypropylcellulose) (HPC)
[10] = dose: 200.0 mg/kg/injection, schedule: Q01DX009 (ip), vehicle: Klucel (hydroxypropylcellulose) (HPC)
[11] = dose: 50.0 mg/kg/injection, schedule: Q01DX009 (ip), vehicle: saline
[12] = dose: 100.0 mg/kg/injection, schedule: Q01DX009 (ip), vehicle: saline
[13] = dose: 100.0 mg/kg/injection, schedule: Q01DX009 (ip), vehicle: saline with Tween-80
[14] = dose: 200.0 mg/kg/injection, schedule: Q01DX009 (ip), vehicle: saline with Tween-80
[15] = dose: 400.0 mg/kg/injection, schedule: Q01DX009 (ip), vehicle: saline with Tween-80
[16] = dose: 25.0 mg/kg/injection, schedule: Q01DX009 (ip), vehicle: saline
[17] = dose: 400.0 mg/kg/injection, schedule: Q01DX009 (ip), vehicle: Klucel (hydroxypropylcellulose) (HPC)
[18] = dose: 8.0 mg/kg/injection, schedule: Q01DX009 (ip), vehicle: saline
[19] = dose: 25.0 mg/kg/injection, schedule: Q04DX003 (ip), vehicle: Klucel (hydroxypropylcellulose) (HPC)
[20] = dose: 50.0 mg/kg/injection, schedule: Q04DX003 (ip), vehicle: Klucel (hydroxypropylcellulose) (HPC)
[21] = dose: 100.0 mg/kg/injection, schedule: Q04DX003 (ip), vehicle: Klucel (hydroxypropylcellulose) (HPC)

Cc1ccc(Cl)cc1NC(=O)Nc1ccccc1Cl
T/C (dose: 0.78 mg/kg/injection, schedule: Q01DX009 (ip), vehicle: saline with Tween-80): 88 % of control | T/C (dose: 1.56 mg/kg/injection, schedule: Q01DX009 (ip), vehicle: saline with Tween-80): 90 % of control | T/C (dose: 3.13 mg/kg/injection, schedule: Q01DX009 (ip), vehicle: saline with Tween-80): 93 % of control | T/C [1]: 90 % of control | T/C (dose: 25.0 mg/kg/injection, schedule: Q01DX009 (ip), vehicle: Klucel (hydroxypropylcellulose) (HPC)): 89 % of control

CCC(C(=O)O)C(=O)O.[NH2-].[NH2-].[Pt+2]
T/C (dose: 8.0 mg/kg/injection, schedule: Q01DX009 (ip), vehicle: water): 115 % of control | T/C [2]: 108 % of control and 113 % of control | T/C (dose: 16.0 mg/kg/injection, schedule: Q01DX009 (ip), vehicle: water): 170 % of control | T/C [3]: 170 % of control | T/C [4]: 177 % of control and 219 % of control | T/C [5]: 112 % of control and 247 % of control

COc1cc2oc(=O)ccc2cc1[C@@H]1OC(=O)C2(C)O[C@@H]12 (some centres not stated)
T/C (dose: 0.63 mg/kg/injection, schedule: Q01DX009 (ip), vehicle: distilled water + Tween-80): 103 % of control | T/C (dose: 1.25 mg/kg/injection, schedule: Q01DX009 (ip), vehicle: distilled water + Tween-80): 95 % of control | T/C (dose: 5.0 mg/kg/injection, schedule: Q01DX009 (ip), vehicle: distilled water + Tween-80): 102 % of control | T/C (dose: 10.0 mg/kg/injection, schedule: Q01DX009 (ip), vehicle: distilled water + Tween-80): 97 % of control

Nc1ccc(S(=O)(=O)N/N=C/c2ccccc2Cl)cc1
T/C [6]: 107 % of control | T/C [7]: 102 % of control | T/C [8]: 107 % of control

C=C(C)C12CC(COC(=O)c3ccccc3)C34OC5(OC1C3C1OC1(COC(=O)CCCCCCCCCCCCCCC)C(O)C1(O)C(OC(=O)c3ccccc3)C(C)C(C(C)CCCCCCC5O)C14)O2 (configuration not stated)
T/C (dose: 0.5 micrograms/kg/injection, schedule: Q01DX009 (ip), vehicle: saline): 106 % of control | T/C (dose: 1.0 micrograms/kg/injection, schedule: Q01DX009 (ip), vehicle: saline): 99 % of control | T/C (dose: 1.9 micrograms/kg/injection, schedule: Q01DX009 (ip), vehicle: saline): 100 % of control | T/C (dose: 3.8 micrograms/kg/injection, schedule: Q01DX009 (ip), vehicle: saline): 109 % of control | T/C (dose: 7.5 micrograms/kg/injection, schedule: Q01DX009 (ip), vehicle: saline): 94 % of control | T/C (dose: 15.0 micrograms/kg/injection, schedule: Q01DX009 (ip), vehicle: saline): 96 % of control | T/C (dose: 30.0 micrograms/kg/injection, schedule: Q01DX009 (ip), vehicle: saline): 96 % of control

COC(=O)CC(=O)c1ccc(C)cc1
T/C [9]: 103 % of control | T/C [10]: 95 % of control

NC(CCC(=O)NC(CS)C(=O)NCC(=O)O)C(=O)O (configuration not stated)
T/C [11]: 124 % of control | T/C [12]: 98 % of control | T/C (dose: 200.0 mg/kg/injection, schedule: Q01DX009 (ip), vehicle: saline): 98 % of control | T/C (dose: 400.0 mg/kg/injection, schedule: Q01DX009 (ip), vehicle: saline): 100 % of control

COc1ccc(/C=C/c2ccc3ccccc3[n+]2C)c(OC)c1OC
T/C (dose: 2.5 mg/kg/injection, schedule: Q01DX009 (ip), vehicle: saline): 104 % of control | T/C (dose: 5.0 mg/kg/injection, schedule: Q01DX009 (ip), vehicle: saline): 113 % of control

O=C(c1ccccc1)c1cc([N+](=O)[O-])cc([N+](=O)[O-])c1
T/C [13]: 97 % of control | T/C [14]: 91 % of control | T/C [15]: 89 % of control

C/C=C1/CC(C)C(C)(O)C(=O)OCC2CCN3CCC(OC1=O)C23 (configuration not stated)
T/C (dose: 12.5 mg/kg/injection, schedule: Q01DX009 (ip), vehicle: saline): 109 % of control | T/C [16]: 109 % of control | T/C [11]: 102 % of control | T/C [12]: 107 % of control

C[n+]1c(/C=C\C=C\N2CCCCC2)sc2ccccc21
T/C (dose: 0.06 mg/kg/injection, schedule: Q01DX009 (ip), vehicle: Klucel (hydroxypropylcellulose) (HPC)): 101 % of control | T/C (dose: 0.12 mg/kg/injection, schedule: Q01DX009 (ip), vehicle: Klucel (hydroxypropylcellulose) (HPC)): 105 % of control | T/C (dose: 0.25 mg/kg/injection, schedule: Q01DX009 (ip), vehicle: Klucel (hydroxypropylcellulose) (HPC)): 101 % of control | T/C (dose: 0.5 mg/kg/injection, schedule: Q01DX009 (ip), vehicle: Klucel (hydroxypropylcellulose) (HPC)): 95 % of control | T/C (dose: 0.63 mg/kg/injection, schedule: Q01DX009 (ip), vehicle: Klucel (hydroxypropylcellulose) (HPC)): 103 % of control | T/C (dose: 1.0 mg/kg/injection, schedule: Q01DX009 (ip), vehicle: Klucel (hydroxypropylcellulose) (HPC)): 101 % of control | T/C (dose: 1.25 mg/kg/injection, schedule: Q01DX009 (ip), vehicle: Klucel (hydroxypropylcellulose) (HPC)): 101 % of control | T/C (dose: 2.0 mg/kg/injection, schedule: Q01DX009 (ip), vehicle: Klucel (hydroxypropylcellulose) (HPC)): 105 % of control | T/C (dose: 2.5 mg/kg/injection, schedule: Q01DX009 (ip), vehicle: Klucel (hydroxypropylcellulose) (HPC)): 109 % of control

Cc1cc(=O)n2c3c(c4c(cc13)c(CN(C)C)cc(=O)n4C)OC2
T/C [1]: 103 % of control | T/C [6]: 101 % of control | T/C [7]: 113 % of control | T/C [8]: 117 % of control

CCc1ccc(NC(=O)Nc2cccc(Cl)c2)cc1
T/C [9]: 91 % of control | T/C [10]: 102 % of control | T/C [17]: 88 % of control

CC1(c2ccc(O)cc2)CCC(C(C)(C)c2ccc(O)cc2)CC1 (configuration not stated)
T/C (dose: 50.0 mg/kg/injection, schedule: Q01DX009 (ip), vehicle: Klucel (hydroxypropylcellulose) (HPC)): 87 % of control | T/C [9]: 96 % of control | T/C [10]: 91 % of control

O=C(O)c1cccc2c(=O)c3ccccc3sc12
T/C [9]: 100 % of control | T/C [10]: 100 % of control | T/C [17]: 93 % of control

C/C=C/CNc1ccccc1
T/C [8]: 101 % of control | T/C [13]: 94 % of control

Nc1nc(-c2ccccc2)c(Br)c(=O)[nH]1
T/C [15]: 150 % of control

Cc1ccc(S(=O)(=O)N2CCC(C(=O)O)(c3ccccc3)CC2)cc1
T/C [8]: 113 % of control | T/C [13]: 99 % of control | T/C [14]: 103 % of control

CC1(C)N=C(N)N=C(N)N1c1ccc(CCCCc2ccc(Cl)c(S(=O)(=O)F)c2)c(Cl)c1
T/C [18]: 105 % of control | T/C (dose: 12.0 mg/kg/injection, schedule: Q01DX009 (ip), vehicle: saline): 114 % of control | T/C (dose: 18.0 mg/kg/injection, schedule: Q01DX009 (ip), vehicle: saline): 118 % of control

C=CCN(CC=C)c1ccc(N(CC)CC)cc1
T/C [19]: 99 % of control | T/C [20]: 102 % of control | T/C [21]: 88 % of control and 89 % of control

CCOc1ccc(C2NC(=O)c3ccccc3N2)cc1 (configuration not stated)
T/C [9]: 105 % of control | T/C [10]: 98 % of control | T/C [17]: 94 % of control

COc1ccc(C[C@H](N)C(=O)NC2C(CO)OC(n3cnc4c(N(C)C)ncnc43)C2O)cc1 (some centres not stated)
T/C (dose: 4.0 mg/kg/injection, schedule: Q01DX009 (ip), vehicle: saline): 114 % of control | T/C [18]: 107 % of control | T/C (dose: 16.0 mg/kg/injection, schedule: Q01DX009 (ip), vehicle: saline): 109 % of control | T/C (dose: 32.0 mg/kg/injection, schedule: Q01DX009 (ip), vehicle: saline): 110 % of control and 114 % of control | T/C (dose: 40.0 mg/kg/injection, schedule: Q01DX009 (ip), vehicle: saline): 108 % of control

c1ccc(C(C2=NCCN2)c2ccccc2)cc1
T/C [19]: 105 % of control | T/C [20]: 91 % of control | T/C [21]: 95 % of control

C(COCC1CO1)OCC1CO1 (configuration not stated)
T/C [16]: 91 % of control | T/C [11]: 113 % of control | T/C [12]: 119 % of control

O=[N+]([O-])c1ccc2nc3c(nc2c1)-c1cccc2cccc-3c12
T/C [8]: 103 % of control | T/C [13]: 100 % of control | T/C [14]: 98 % of control

CC(C)C(O)(C(=O)NN)C(=O)NN
T/C [4]: 91 % of control | T/C [5]: 96 % of control | T/C (dose: 200.0 mg/kg/injection, schedule: Q04DX003 (ip), vehicle: saline): 117 % of control

CN(C)CCCc1c2ccccc2nc2ccc(Cl)cc12
T/C [2]: 117 % of control | T/C [3]: 114 % of control | T/C [4]: 108 % of control
